The record followed here is PubChem BioAssay AID504726 (Broad Institute, 2011).

Calls of active or inactive are those of the source.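 The calls were made as follows: active = fitted half-maximal concentration for a cytotoxic signal drop no higher than ten times the top valid dose tested; inconclusive = flat curve between -70 and -30 percent, or an unreliable fit; inactive = flat within 30 percent, signal rise, or potency beyond limit.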

The test in a line: HeLa cell cytotoxicity, dose response, cytotoxicity control, 24 h, cherry-picked samples (AID 504726).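 Also: 0% = DMSO neutral controls and -100% = mitoxantrone positive controls.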 The settings on record: HeLa viability, CellTiter-Glo ATP luminescence, 24 h; at 35 µM (top of the series). For orientation: In ATP-based viability assays light output follows the ATP content of the culture.
Regarding `Cc1cc2nc3c(=O)[nH]c(=S)[nH]c3nc2cc1NC(=O)C(F)(F)F`, the activity change, negative = cytotoxicity was -3.95% (inactive).

Turning to `COC(=O)c1cccc(COC(=O)c2ccccc2NC(=O)c2ccco2)c1`, the activity change, negative = cytotoxicity is -11.1% (inactive).

In the case of `CC1CC(C)(C)NC(=S)N1CC(=O)N(C)Cc1ccccc1` (stereo not given), the activity change, negative = cytotoxicity is -2.63% (inactive).

Regarding `Nc1ccccc1C(=O)N1O[C@@H]2C=C[C@H]1CC2`, the activity change, negative = cytotoxicity is -9.71% (inactive).

Consider `CN(C)/C=C1\C=C2C(=O)c3ccccc3N2C1=O`, for which the activity change, negative = cytotoxicity was -8.99% (inactive).

With `COc1ccccc1C(=O)NCC(=O)OCC(=O)N(CC(C)C)c1c(N)n(Cc2ccccc2)c(=O)[nH]c1=O`, the activity change, negative = cytotoxicity was 1.22% (inactive).

Consider `O=C(OCCN1C(=O)c2cccc3c(N4CCOCC4)ccc(c23)C1=O)c1ccc(Cl)cc1`, for which the activity change, negative = cytotoxicity is -11.7% (inactive).

In the case of `COc1cc(NC(=O)c2ccc(CNc3c(N4CCCC4)c(=O)c3=O)cc2)cc(OC)c1OC`, the activity change, negative = cytotoxicity was -7.17% (inactive).

On to `Cn1c(=O)c(NCCO)c2c3c(cccc31)C(=O)c1ccccc1-2`, for which the activity change, negative = cytotoxicity was -6.61% (inactive).

Turning to `O=c1c2cc(O)c(O)cc2oc2cc(O)c(C3OC(CO)C(O)C(O)C3O)c(O)c12` (stereo not given), the activity change, negative = cytotoxicity is 3.92% (inactive).

For `Cc1noc(C)c1C(=O)N1CCN(c2ccc(OCc3ccccc3)cc2)CC1`, the activity change, negative = cytotoxicity was -3.67% (inactive).

As for `O=C(c1ccccc1)c1ccc(O)cc1O`, the activity change, negative = cytotoxicity was -20.5% (inactive).

Turning to `CCCCn1c(N)c(N(CCOC)C(=O)c2cc(C)oc2C)c(=O)[nH]c1=O`, the activity change, negative = cytotoxicity was -6.37% (inactive).

Take `CCc1nnc(NC(=O)c2cccc(S(=O)(=O)N(C)c3ccccc3)c2)s1`: the activity change, negative = cytotoxicity was -7.23% (inactive).

Turning to `CC(C(=O)O)N1C(=O)/C(=C/C=C/c2ccco2)SC1=S` (stereo not given), the activity change, negative = cytotoxicity is -13.5% (inactive).

In the case of `Cc1ccccc1NC(=S)NC(C)CCc1ccccc1` (stereo not given), the activity change, negative = cytotoxicity is -9.6% (inactive).

As for `COc1ccc(-c2cnc3n2CCCCC3)cc1`, the activity change, negative = cytotoxicity is 0.279% (inactive).

In the case of `Nc1ccc(-c2c3ccc(=O)cc-3oc3cc(O)ccc23)cc1C(=O)O`, the activity change, negative = cytotoxicity was -1.65% (inactive).

Consider `Cc1cccc(-c2nsc(SCC(=O)Nc3nccs3)n2)c1`, for which the activity change, negative = cytotoxicity was -0.205% (inactive).

Regarding `Cc1[nH][nH]c(=O)c1C(c1ccc(-c2ccc(Cl)c(C(=O)O)c2)o1)c1c(C)[nH][nH]c1=O`, the activity change, negative = cytotoxicity was -3.88% (inactive).

Regarding `COc1ccc(OC)c(NC(=O)c2nnn(Cc3ccc(Br)cc3F)c2N)c1`, the activity change, negative = cytotoxicity is -9.89% (inactive).

Consider `CC(C)CC(=O)Nc1ccc(S(=O)(=O)N2CC3CC(C2)c2cccc(=O)n2C3)cc1` (stereo not given), for which the activity change, negative = cytotoxicity is 1.91% (inactive).

With `O=C(O)Cc1c[nH]c2cccc(O)c12`, the activity change, negative = cytotoxicity is -14.7% (inactive).

As for `COc1ccc(CC(=O)O/N=C(\N)c2ccc(OC)cc2)cc1`, the activity change, negative = cytotoxicity was -11.5% (inactive).

As for `CCN(C(=O)COC(=O)c1nc2nc(C)cc(C)n2n1)C1CCCCC1`, the activity change, negative = cytotoxicity was 5.26% (inactive).

Turning to `CCN(C(=O)c1cccc(S(=O)(=O)N2CCc3ccccc32)c1)C1CCS(=O)(=O)C1` (stereo not given), the activity change, negative = cytotoxicity was -1.74% (inactive).

Take `COc1ccccc1CNC(=O)CCS(=O)(=O)c1cccs1`: the activity change, negative = cytotoxicity was 4.31% (inactive).

As to `Cc1cc2nc3c(=O)n(C4CCCCC4)c(=O)[nH]c3nc2cc1N`, the activity change, negative = cytotoxicity was 4.62% (inactive).

On to `CCc1cc[n+](-c2nc([O-])sc2C=O)cc1`, for which the activity change, negative = cytotoxicity was 0.003% (inactive).

For the compound `CCOC(=O)[C@H]1[C@H]2COc3cc(OC)ccc3[C@@H]2N2C(=O)CN(Cc3ccc(OC)cc3)C(=O)[C@@]12C`, the activity change, negative = cytotoxicity was -9.01% (inactive).
